Assay results published in publication PMC10252048, “Correction: Gubič et al. Design of New Potent and Selective Thiophene-Based KV1.3 Inhibitors and Their Potential for Anticancer Activity. Cancers 2022, 14, 2595” (Cancers, 2023).

What was measured:
Experiment in all cases: selectivity, HiClamp system on oocytes
Assay type in all cases: cell-based
Conditions in all cases: 10 µM
KV2.1 = biological target: T1, KV2.1 (Homo sapiens, UniProt Q14721)
T1 construct: expressed in transfected cells; host or cells: Xenopus laevis oocytes
T1 sequence (Q14721 1-858): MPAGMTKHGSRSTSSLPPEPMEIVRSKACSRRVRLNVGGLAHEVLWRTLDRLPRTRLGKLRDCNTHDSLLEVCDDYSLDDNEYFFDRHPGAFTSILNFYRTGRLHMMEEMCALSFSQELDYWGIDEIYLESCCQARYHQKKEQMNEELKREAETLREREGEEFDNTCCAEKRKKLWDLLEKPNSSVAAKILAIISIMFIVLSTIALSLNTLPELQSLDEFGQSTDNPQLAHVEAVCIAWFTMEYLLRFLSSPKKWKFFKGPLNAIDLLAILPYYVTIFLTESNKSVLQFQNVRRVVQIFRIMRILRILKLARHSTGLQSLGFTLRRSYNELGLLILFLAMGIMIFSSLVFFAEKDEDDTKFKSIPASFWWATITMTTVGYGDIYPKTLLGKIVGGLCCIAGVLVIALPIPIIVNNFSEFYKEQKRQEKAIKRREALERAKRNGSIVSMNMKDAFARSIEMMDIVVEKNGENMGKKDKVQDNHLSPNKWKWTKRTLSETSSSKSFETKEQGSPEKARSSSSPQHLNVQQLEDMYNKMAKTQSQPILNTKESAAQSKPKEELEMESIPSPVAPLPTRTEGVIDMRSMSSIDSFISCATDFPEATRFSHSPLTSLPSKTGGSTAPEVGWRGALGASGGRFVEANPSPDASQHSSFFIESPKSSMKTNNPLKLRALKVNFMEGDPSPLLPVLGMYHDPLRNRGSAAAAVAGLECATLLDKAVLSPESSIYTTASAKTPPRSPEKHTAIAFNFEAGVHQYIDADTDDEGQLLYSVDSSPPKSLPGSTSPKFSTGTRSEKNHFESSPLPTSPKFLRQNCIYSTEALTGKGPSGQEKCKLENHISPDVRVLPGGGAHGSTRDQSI

KV1.6 = biological target: T2, KV1.6 (Homo sapiens, UniProt P17658)
T2 construct: expressed in transfected cells; host or cells: Xenopus laevis oocytes
T2 sequence (P17658 whole entry): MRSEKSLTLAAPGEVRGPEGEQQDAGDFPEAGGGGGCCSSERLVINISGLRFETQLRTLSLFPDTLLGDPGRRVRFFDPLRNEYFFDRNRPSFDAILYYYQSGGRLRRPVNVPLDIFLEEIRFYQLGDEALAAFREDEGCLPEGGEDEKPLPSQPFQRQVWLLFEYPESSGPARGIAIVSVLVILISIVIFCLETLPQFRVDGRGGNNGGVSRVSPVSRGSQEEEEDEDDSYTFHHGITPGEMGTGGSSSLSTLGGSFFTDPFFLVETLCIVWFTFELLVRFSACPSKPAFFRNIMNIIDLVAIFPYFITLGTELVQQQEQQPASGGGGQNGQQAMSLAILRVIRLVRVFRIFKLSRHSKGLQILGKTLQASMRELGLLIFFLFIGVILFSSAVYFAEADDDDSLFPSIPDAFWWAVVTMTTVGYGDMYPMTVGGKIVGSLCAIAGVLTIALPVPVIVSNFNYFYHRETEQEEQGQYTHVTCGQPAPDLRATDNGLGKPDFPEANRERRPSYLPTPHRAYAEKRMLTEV

KV1.4 = biological target: T3, KV1.4 (Homo sapiens, UniProt P22459)
T3 construct: expressed in transfected cells; host or cells: Xenopus laevis oocytes
T3 sequence (P22459 whole entry): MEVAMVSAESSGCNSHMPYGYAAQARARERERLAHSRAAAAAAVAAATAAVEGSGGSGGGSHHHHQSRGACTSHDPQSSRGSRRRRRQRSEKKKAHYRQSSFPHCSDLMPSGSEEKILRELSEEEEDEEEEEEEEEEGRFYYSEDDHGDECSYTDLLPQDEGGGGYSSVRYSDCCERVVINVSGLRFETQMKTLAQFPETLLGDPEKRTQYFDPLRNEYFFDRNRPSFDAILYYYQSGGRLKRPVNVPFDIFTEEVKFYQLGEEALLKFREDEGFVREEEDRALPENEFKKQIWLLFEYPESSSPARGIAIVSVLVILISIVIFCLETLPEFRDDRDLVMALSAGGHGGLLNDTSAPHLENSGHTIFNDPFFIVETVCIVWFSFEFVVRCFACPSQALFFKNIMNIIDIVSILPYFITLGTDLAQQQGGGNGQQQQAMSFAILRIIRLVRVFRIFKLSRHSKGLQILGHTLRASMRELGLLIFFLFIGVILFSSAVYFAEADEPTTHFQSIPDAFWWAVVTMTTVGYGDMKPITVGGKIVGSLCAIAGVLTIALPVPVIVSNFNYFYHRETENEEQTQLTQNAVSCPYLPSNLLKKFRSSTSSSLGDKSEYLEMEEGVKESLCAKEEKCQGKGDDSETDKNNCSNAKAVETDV

KV1.5 = biological target: T4, KV1.5 (Homo sapiens, UniProt P22460)
T4 construct: expressed in transfected cells; host or cells: Xenopus laevis oocytes
T4 sequence (P22460 whole entry): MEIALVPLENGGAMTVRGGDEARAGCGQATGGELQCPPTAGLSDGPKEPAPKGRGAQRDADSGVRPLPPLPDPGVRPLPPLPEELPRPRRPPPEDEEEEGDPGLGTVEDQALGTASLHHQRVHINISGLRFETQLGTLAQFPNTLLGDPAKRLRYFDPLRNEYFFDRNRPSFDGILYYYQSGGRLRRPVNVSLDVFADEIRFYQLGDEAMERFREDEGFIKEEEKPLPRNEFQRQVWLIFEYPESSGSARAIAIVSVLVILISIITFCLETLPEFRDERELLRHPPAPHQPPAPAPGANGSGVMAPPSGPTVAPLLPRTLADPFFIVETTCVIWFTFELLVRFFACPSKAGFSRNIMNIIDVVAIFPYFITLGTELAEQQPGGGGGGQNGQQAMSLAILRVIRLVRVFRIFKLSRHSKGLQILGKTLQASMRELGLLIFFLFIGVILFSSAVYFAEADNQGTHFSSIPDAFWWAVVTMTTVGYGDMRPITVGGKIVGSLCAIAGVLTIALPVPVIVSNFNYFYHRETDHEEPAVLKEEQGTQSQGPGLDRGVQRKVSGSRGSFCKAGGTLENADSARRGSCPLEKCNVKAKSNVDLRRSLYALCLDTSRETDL

KV10.1 = biological target: T5, KV10.1 (Homo sapiens, UniProt O95259)
T5 construct: expressed in transfected cells; host or cells: Xenopus laevis oocytes
T5 sequence (O95259 1-989): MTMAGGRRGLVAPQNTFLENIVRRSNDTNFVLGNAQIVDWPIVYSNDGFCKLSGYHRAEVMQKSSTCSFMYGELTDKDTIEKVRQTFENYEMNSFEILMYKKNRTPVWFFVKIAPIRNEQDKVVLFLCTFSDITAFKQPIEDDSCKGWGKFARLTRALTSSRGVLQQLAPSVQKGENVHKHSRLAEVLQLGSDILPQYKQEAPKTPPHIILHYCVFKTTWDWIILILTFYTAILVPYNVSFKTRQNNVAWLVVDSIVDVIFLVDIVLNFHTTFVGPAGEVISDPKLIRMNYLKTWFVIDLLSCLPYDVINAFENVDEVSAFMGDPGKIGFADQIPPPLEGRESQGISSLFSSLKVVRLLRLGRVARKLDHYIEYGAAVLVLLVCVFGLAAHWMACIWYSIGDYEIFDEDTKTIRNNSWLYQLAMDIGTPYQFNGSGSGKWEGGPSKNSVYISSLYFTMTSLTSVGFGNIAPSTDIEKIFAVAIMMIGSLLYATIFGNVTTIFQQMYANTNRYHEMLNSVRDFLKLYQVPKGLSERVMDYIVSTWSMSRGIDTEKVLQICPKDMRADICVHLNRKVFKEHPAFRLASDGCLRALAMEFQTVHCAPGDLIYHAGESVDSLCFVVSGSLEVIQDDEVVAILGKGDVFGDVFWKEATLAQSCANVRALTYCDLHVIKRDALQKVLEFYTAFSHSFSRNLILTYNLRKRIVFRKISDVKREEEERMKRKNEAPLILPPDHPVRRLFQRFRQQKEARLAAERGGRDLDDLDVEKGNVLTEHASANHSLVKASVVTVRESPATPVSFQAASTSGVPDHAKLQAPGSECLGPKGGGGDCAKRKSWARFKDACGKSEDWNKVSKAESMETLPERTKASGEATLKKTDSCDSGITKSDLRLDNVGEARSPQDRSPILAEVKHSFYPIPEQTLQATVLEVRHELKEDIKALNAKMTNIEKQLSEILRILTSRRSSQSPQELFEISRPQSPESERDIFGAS

KV1.1 = biological target: T6, KV1.1 (Homo sapiens, UniProt Q09470)
T6 construct: expressed in transfected cells; host or cells: Xenopus laevis oocytes
T6 sequence (Q09470 whole entry): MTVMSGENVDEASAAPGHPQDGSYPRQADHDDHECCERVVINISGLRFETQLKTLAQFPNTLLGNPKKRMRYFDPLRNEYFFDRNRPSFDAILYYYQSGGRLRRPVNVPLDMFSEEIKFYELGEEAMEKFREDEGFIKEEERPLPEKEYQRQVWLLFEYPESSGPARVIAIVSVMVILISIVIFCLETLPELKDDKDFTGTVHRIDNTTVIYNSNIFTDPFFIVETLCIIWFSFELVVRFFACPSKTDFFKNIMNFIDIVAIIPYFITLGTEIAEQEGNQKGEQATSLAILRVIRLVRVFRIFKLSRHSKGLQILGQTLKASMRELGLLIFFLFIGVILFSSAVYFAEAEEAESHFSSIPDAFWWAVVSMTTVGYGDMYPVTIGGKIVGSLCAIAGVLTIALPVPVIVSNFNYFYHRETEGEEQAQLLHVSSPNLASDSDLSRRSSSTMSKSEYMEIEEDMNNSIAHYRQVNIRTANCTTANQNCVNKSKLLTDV

KV1.2 = biological target: T7, KV1.2 (Homo sapiens, UniProt P16389)
T7 construct: expressed in transfected cells; host or cells: Xenopus laevis oocytes
T7 sequence (P16389 whole entry): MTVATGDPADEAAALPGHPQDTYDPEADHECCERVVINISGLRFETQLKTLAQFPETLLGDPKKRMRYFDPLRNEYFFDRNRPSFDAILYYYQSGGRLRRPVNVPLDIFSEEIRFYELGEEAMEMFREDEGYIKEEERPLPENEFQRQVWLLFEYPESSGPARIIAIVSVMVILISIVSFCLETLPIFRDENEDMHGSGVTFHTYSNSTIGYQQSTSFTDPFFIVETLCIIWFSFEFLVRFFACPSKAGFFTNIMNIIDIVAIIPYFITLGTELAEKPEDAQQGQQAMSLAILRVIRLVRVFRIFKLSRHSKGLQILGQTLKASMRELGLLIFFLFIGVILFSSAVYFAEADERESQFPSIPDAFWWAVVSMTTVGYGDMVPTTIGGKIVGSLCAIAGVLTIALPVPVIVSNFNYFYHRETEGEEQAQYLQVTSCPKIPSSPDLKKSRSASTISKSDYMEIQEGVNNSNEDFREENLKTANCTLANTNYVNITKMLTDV

KV4.2 = biological target: T8, KV4.2 (Homo sapiens, UniProt Q9NZV8)
T8 construct: expressed in transfected cells; host or cells: Xenopus laevis oocytes
T8 sequence (Q9NZV8 1-630): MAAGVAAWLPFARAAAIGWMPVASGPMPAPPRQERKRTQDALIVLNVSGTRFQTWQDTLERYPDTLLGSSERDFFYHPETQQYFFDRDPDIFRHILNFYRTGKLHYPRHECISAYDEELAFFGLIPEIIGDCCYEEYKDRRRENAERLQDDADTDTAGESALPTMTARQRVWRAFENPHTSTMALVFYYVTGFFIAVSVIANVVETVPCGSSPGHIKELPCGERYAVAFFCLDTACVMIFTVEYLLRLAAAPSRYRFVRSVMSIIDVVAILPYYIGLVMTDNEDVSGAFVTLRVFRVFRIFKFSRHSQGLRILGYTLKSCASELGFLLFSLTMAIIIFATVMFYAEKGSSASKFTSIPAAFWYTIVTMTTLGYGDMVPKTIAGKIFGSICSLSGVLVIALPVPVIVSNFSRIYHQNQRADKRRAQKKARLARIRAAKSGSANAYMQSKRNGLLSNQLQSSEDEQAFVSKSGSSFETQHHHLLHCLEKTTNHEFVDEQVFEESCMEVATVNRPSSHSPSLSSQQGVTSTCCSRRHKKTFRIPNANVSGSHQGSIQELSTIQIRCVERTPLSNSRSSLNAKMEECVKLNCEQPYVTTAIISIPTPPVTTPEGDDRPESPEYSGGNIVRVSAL

O=c1ccc2c(OCCCCOc3ccccc3)c3ccoc3cc2o1 [PAP-1 (1), PAP-1]
no significant effects: effect on KV2.1 (KV2.1) | effect on KV1.6 (KV1.6) | effect on KV1.4 (KV1.4) | effect on KV1.5 (KV1.5) | effect on KV10.1 (KV10.1) | effect on KV1.1 (KV1.1) | effect on KV1.2 (KV1.2) | effect on KV4.2 (KV4.2)
